Assay results: publication PMC8954204, “Synthesis and Evaluation of a ^18F-Labeled Ligand for PET Imaging of Colony-Stimulating Factor 1 Receptor” (Pharmaceuticals, 2022)
Values belong to the molecule of their own block, whether it stands above or below them.

Assays:
[1] = target: T1, CSF1R (Homo sapiens, UniProt P07333); test: FRET-based Z'-LYTE kinase assay, binding affinity for CSF1R; format: biochemical; conditions: FRET-based method, 1 mM ATP, mean ± S.D. of three measurements
T1 construct: purchased Abcam
Description: The binding affinity of ligand 1 for CSF1R was measured using a fluorescence resonance energy transfer (FRET)-based method.
The final concentration of DMSO in the incubation mixture was 1%. The mixtures were incubated at room temperature for 1 h, followed by development reaction incubations at room temperature for 1 h. The fluorescence intensity of the incubation mixtures was measured (excitation, 400 nm; emission, 445 nm (donor) and 520 nm (acceptor)) using a Mithras^2 LB 943 monochromator multimode microplate reader (Berthold Technologies, Bad Wildbad, Germany), and the phosphorylation extent of the FRET-peptide was calculated. All experiments were performed in triplicate, and the IC50 values represent the average of three experimental determinations.

[2] = test system: CSF1R; parameters: method as in PMID 33757319; conditions: rhesus monkey; cited from earlier work
[3] = metabolism study, HPLC of brain homogenates and blood samples; format: in vivo, ICR mice; conditions: control mice
Description: In order to confirm that the brain uptake was due to the radioligand, we analyzed the brain homogenates and blood samples of control mice using HPLC. […] However, approximately 65% of the radioligand in the blood samples was converted to polar radiometabolites within 30 min after injection (Figure S3).
ICR mice (n = 1 per time point) were injected with [^18F]1 (18.5 MBq) via a tail vein. At 5 and 30 min after injection, mice were sacrificed, and samples of brain and blood were obtained. The samples were homogenized in 1 mL of acetonitrile and centrifuged. The supernatants were analyzed by HPLC using an analytical column eluted with a 45:55 mixture of 0.05 M ammonium formate (aq.) and acetonitrile at a flow rate of 1 mL/min. Eluates were monitored using a NaI(T1) radioactivity detector.

[4] = ex vivo biodistribution in control, LPS and LPS+block mice; parameters: species or system ICR mice; conditions: for blood uptake / brain uptake / femur uptake / kidney uptake / liver uptake / muscle uptake / spleen uptake: 45 min after i.v. injection, n = 4
Description: Ex vivo biodistribution studies were performed in three groups of mice (control, LPS, and LPS+block groups) at 45 min after intravenous (i.v.) injection of [^18F]1. […] Therefore, we performed the ex vivo biodistribution studies at 45 min after injection of [^18F]1 (Table 2). […] The relatively low level of inhibition can be attributed to the injection route and time of the blocking agent, i.p. administration 5 min prior to radioligand injection, which might not have allowed time for sufficient blocking. However, most of the PET radioligands currently developed for CSF1R imaging have low uptake or high non-specific binding in the brains of rodents and non-human primates. […] In this context, further blocking studies of [^18F]1 need to be conducted using the optimized injection time points of the blocking agents and using other potent CSF1R inhibitors as the blocking agents. […] In addition, these biodistribution data matched with the whole-body PET images of the control and LPS mice (Figure S2).
ICR male mice aged between 5 and 6 weeks were used in this study. The mice were provided drinking water and a normal diet ad libitum and were maintained under a 12 h light-dark cycle at 24 ± 1 °C with 50% humidity. The LPS-treated mouse model was prepared by injecting LPS (10 mg/kg in saline) i.p. into mice, and all experiments were carried out on the third day after LPS injection. Tissue radioactivity was counted using an automatic gamma counter (PerkinElmer, Waltham, MA, USA). MicroPET/CT images were acquired using an Inveon microPET/CT scanner (Siemens Medical Solutions, Knoxville, TN, USA).
ICR mice were divided into three groups: control, LPS, and LPS+block groups (n = 4 per group). […] Control and LPS-treated mice were injected i.p. with 100 μL of vehicle (10% DMSO-saline) at 5 min prior to the radioligand injection. At 45 min after radioligand injection, mice were sacrificed by cervical dislocation, and the blood and major tissues (brain, muscle, femur, liver, spleen, and kidney) were separated, weighed, and counted. Data are expressed as a percentage of injected dose per gram of tissue (% ID/g).

[5] = dynamic microPET/CT imaging, whole brain time activity curve; format: in vivo, ICR mice; conditions: control and LPS mouse, whole brain TAC
Excerpt: Dynamic PET/CT images of control and LPS mice were acquired, and the brain uptake was higher in the LPS mouse than in the control mouse (Figure 4A). […] In the control mouse, there was uptake in the decreasing order of the thalamus, striatum, hypothalamus, frontal cortex, and cerebellum (Figure 4C). In the 5.5-week-old mice used in our study, the frontal cortex and cerebellum had similar levels of uptake, although the cerebral cortex has markedly higher CSF1R expression than does the cerebellum in older adult mice. In the LPS mouse, a pattern similar to that of the control mouse was observed, with high uptake in the thalamus and striatum, and intermediate to low uptake in the hypothalamus, cerebellum, and frontal cortex (Figure 4C).
Dynamic PET scans of mice (one control and one LPS) were initiated simultaneously with tail vein injection of [^18F]1 (7.4 ± 0.1 MBq/mouse) and performed for 60 min (15 s × 8 frames, 30 s × 10 frames, 60 s × 3 frames, 240 s × 5 frames, 300 s × 6 frames, 32 frames in total); CT images followed for 20 min. […]
Analysis of dynamic PET data was performed using the PMOD 3.308 software (PMOD Technologies, Zurich, Switzerland). […] Several volumes of interest (VOIs) were determined on the mouse brain template: whole brain, striatum (mean value of the left and right striata), thalamus, hypothalamus, frontal cortex, and cerebellum. […]

[6] = target: T1, CSF1R; test: binding study of radioligand on CSF1R-coated well plates
Description: A binding study of radioligand [^18F]1 for CSF1R was also performed using well plates coated with CSF1R.
A binding study of [^18F]1 for CSF1R was performed using detachable 96-well polystyrene plates (Nest Scientific, Rahway, NJ, USA). The plates were coated with 50 μL of CSF1R (200 μg/mL) in 0.05 M carbonate-bicarbonate buffer (pH 9.6). Non-coated plates were used for a control experiment. The CSF1R-coated and non-coated plates were incubated at 4 °C overnight and washed three times with PBS-T (20 mM PBS (pH 7.4) with 0.05% Tween-20). The unoccupied sites were blocked with blocking buffer (5% BSA in PBS-T) at room temperature for 1 h, and the plates were washed three times with PBS-T. [^18F]1 was dissolved in DMSO, and two-fold serial dilutions ranging from 1:100 to 1:400 were made from the radioligand solution. The diluted radioligand solutions were added to the CSF1R-coated and non-coated wells, which were then incubated at room temperature for 1 h. After incubation, the plates were washed three times with PBS-T. The wells were detached, and the radioligand bound to the wells was measured using a gamma counter and expressed as counts per minute (cpm). All experiments were performed in triplicate.

[7] = octanol-water partition coefficient; format: physicochemical; conditions: 1-octanol/water; read-out: log P (octanol-water partition coefficient)
Description: Radioligand [^18F]1 was dissolved in 800 μL 1-octanol and mixed with 800 μL water, vortexed vigorously for 5 min, and centrifuged. Two layers were separated, and 100 μL aliquots of the 1-octanol and aqueous layers were removed and counted. Samples from the 1-octanol and aqueous layers were repartitioned until consistent values were obtained. The log P is expressed as the logarithm of the ratio of the counts per minute from octanol versus that of water.

[8] = LPS+block mice (CPPC 1 mg/kg i.p. 5 min before)

T1 sequence (P07333 20-972, species assumed): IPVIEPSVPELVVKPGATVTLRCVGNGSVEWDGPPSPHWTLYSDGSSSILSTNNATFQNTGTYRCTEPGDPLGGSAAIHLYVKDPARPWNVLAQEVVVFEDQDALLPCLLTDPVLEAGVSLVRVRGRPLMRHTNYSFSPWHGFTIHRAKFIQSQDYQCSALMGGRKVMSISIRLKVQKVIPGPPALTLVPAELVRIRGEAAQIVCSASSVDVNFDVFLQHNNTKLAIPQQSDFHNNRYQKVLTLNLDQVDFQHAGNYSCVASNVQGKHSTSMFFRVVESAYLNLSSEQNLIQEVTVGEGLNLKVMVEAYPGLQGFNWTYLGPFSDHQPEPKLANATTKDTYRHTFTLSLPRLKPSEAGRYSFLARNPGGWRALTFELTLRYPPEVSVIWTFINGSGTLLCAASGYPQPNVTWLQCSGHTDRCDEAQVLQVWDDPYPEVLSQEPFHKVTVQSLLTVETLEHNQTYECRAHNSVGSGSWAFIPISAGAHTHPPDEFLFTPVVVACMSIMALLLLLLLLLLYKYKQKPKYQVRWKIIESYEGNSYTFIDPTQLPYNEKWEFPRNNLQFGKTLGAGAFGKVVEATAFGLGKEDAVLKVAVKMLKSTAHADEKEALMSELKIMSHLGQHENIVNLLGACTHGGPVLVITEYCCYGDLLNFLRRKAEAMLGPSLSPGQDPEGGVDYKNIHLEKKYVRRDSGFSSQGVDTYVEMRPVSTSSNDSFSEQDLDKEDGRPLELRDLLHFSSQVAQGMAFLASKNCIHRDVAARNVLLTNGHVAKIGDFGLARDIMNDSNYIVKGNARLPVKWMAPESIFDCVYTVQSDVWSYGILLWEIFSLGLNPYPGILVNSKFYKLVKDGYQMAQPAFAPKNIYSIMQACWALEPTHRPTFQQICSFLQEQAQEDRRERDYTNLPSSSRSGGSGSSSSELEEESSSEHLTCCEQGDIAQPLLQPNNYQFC

IC50 [1]: 3.42 ± 0.33 nM
Structure (SMILES): N#Cc1ccc(C(=O)Nc2ccc(N3CCN(CCF)CC3)cc2N2CCCCC2)o1 [Ligand 1, 5-Cyano-N-(4-(4-(2-fluoroethyl)piperazin-1-yl)-2-(piperidin-1-yl)phenyl)furan-2-carboxamide]

Structure (SMILES): COc1ccc(COc2ccc(Cc3cnc(N)nc3N)cc2O[11CH3])cc1 [[^11C]GW2580, 5-(3-[^11C]methoxy-4-((4-methoxybenzyl)oxy)benzyl)pyrimidine-2,4-diamine]
blocking of brain uptake with GW2580 [2]: 30%

radioligand in blood converted to polar radiometabolites ([3]; blood samples, within 30 min after injection): approximately 65%
state of radioligand in the brain ([3]; brain homogenates at 5 and 30 min after injection): intact
blood uptake ([4]; LPS mice): 1.21 ± 0.11 % ID/g
brain uptake ([4]; LPS mice): 2.14 ± 0.19 % ID/g
femur uptake ([4]; LPS mice): 1.95 ± 0.44 % ID/g
kidney uptake ([4]; LPS mice): 2.23 ± 0.08 % ID/g
liver uptake ([4]; LPS mice): 6.04 ± 0.91 % ID/g
muscle uptake ([4]; LPS mice): 1.03 ± 0.07 % ID/g
spleen uptake ([4]; LPS mice): 2.47 ± 0.19 % ID/g
blood uptake [4, 8]: 1.30 ± 0.11 % ID/g
brain uptake [4, 8]: 1.67 ± 0.16 % ID/g
femur uptake [4, 8]: 2.11 ± 0.37 % ID/g
kidney uptake [4, 8]: 2.04 ± 0.10 % ID/g
liver uptake [4, 8]: 3.15 ± 0.62 % ID/g
muscle uptake [4, 8]: 1.20 ± 0.19 % ID/g
spleen uptake [4, 8]: 1.45 ± 0.13 % ID/g
blood uptake ([4]; control mice): 0.93 ± 0.05 % ID/g
brain uptake ([4]; control mice): 1.20 ± 0.06 % ID/g
femur uptake ([4]; control mice): 1.80 ± 0.09 % ID/g
kidney uptake ([4]; control mice): 1.97 ± 0.05 % ID/g
liver uptake ([4]; control mice): 6.87 ± 0.48 % ID/g
muscle uptake ([4]; control mice): 0.96 ± 0.10 % ID/g
spleen uptake ([4]; control mice): 1.58 ± 0.20 % ID/g
time of peak whole brain uptake after radioligand injection [5]: ≤ 3 min
radioligand bound to CSF1R-coated wells relative to non-coated wells (control) ([6]; 0.93 kBq radioligand): 3.31 fold
radioligand bound to CSF1R-coated wells relative to non-coated wells (control) ([6]; 1.85 kBq radioligand): 5.07 fold
radioligand bound to CSF1R-coated wells relative to non-coated wells (control) ([6]; 3.7 kBq radioligand): 7.14 fold
logP [7]: 2.3 ± 0.01
Structure (SMILES): N#Cc1ccc(C(=O)Nc2ccc(N3CCN(CC[18F])CC3)cc2N2CCCCC2)o1 [[^18F]1, 5-cyano-N-(4-(4-(2-[^18F]fluoroethyl)piperazin-1-yl)-2-(piperidin-1-yl)phenyl)furan-2-carboxamide]
increase of brain uptake in LPS mice compared to control mice ([4]; 45 min after radioligand injection): 78%
